Assay results: patent US6855710B2, “Substituted indolines with an inhibitory effect on various kinases and complexes of CDKs” (Boehringer Ingelheim Pharma KG, priority 1998, dated 2005)

melting point | Structure (SMILES)
158 to 160 °C | CN1C(=O)/C(=C(\Nc2cccc(C#N)c2)c2ccccc2)c2ccccc21 [Example 73, (Z)-1-methyl-3-[1-(3-cyanophenylamino)-1-phenyl-methylidene]-2-indolinone]
216 to 217 °C | CCCCNC(=O)Nc1ccc(N/C(=C2\C(=O)Nc3ccccc32)c2ccccc2)cc1 [Example 46, (Z)-3-[1-(4-butylaminocarbonylamino-phenylamino)-1-phenyl-methylidene]-2-indolinone]
115 to 117 °C | CN(c1ccc(N/C(=C2\C(=O)Nc3ccccc32)c2ccccc2)cc1)S(=O)(=O)CCN1CCOCC1 [Example 384, (Z)-3-{1-[4-(N-(2-morpholinoethylsulphonyl)-N-methyl-amino)-phenylamino]-1-phenyl-methylidene}-2-indolinone]
235 to 237 °C | CCNCCc1ccc(N/C(=C2\C(=O)Nc3ccc([N+](=O)[O-])cc32)c2ccccc2)cc1 [Example 255, (Z)-3-{1-[4-(2-ethylamino-ethyl)-phenylamino]-1-phenyl-methylidene}-5-nitro-2-indolinone]
230 to 235 °C | C[C@H](N)c1ccc(N/C(=C2\C(=O)Nc3ccc([N+](=O)[O-])cc32)c2ccccc2)cc1.Cl
266 to 268 °C | CS(=O)(=O)N(CC#N)c1ccc(N/C(=C2\C(=O)Nc3ccccc32)c2ccccc2)cc1 [Example 187, (Z)-3-{1-[4-(N-cyanomethyl-N-methylsulphonyl-amino)-phenyl-amino]-1-phenyl-methylidene}-2-indolinone]
238 to 242 °C | CN(C)C(=N)c1cccc(N/C(=C2\C(=O)Nc3ccccc32)c2ccccc2)c1 [Example 66, (Z)-3-{1-[3-(N,N-dimethylcarbamimidoyl)-phenylamino)-1-phenyl-methylidene}-2-indolinone]
225 to 227 °C | CCC1CCN(Cc2ccc(N/C(=C3\C(=O)Nc4ccc([N+](=O)[O-])cc43)c3ccccc3)cc2)CC1 [Example 175, (Z)-3-{1-[4-(4-ethylpiperidinomethyl)-phenylamino]-1-phenyl-methylidene}-5-nitro-2-indolinone]
255 to 256 °C | CN(C(=O)CN)c1ccc(N/C(=C2\C(=O)Nc3ccc([N+](=O)[O-])cc32)c2ccccc2)cc1 [Example 139, (Z)-3-{1-[4-(N-aminomethylcarbonyl-N-methyl-amino)-phenyl-amino]-1-phenyl-methylidene}-5-nitro-2-indolinone]
328 to 329 °C (dec.) | O=C1Nc2ccc([N+](=O)[O-])cc2/C1=C(/Nc1ccc(CN2CCS(=O)(=O)CC2)cc1)c1ccccc1 [Example 231, (Z)-3-{1-[4-((1,1-dioxothiomorpholino)-methyl)-phenylamino]-1-phenyl-methylidene}-5-nitro-2-indolinone]
249 to 254 °C (dec.) | O=C1Nc2ccc([N+](=O)[O-])cc2/C1=C(/Nc1ccc(CCN2CC=CCC2)cc1)c1ccccc1 [Example 269, (Z)-3-{1-[4-(2-(3,6-Dihydro-2H-pyridin-1-yl)-ethyl)-phenylamino]-1-phenyl-methylidene}-5-nitro-2-indolinone]
159 to 161 °C | CN(C)C(=O)CN(c1ccc(N/C(=C2\C(=O)Nc3ccc([N+](=O)[O-])cc32)c2ccccc2)cc1)S(=O)(=O)Cc1ccccc1 [Example 303, (Z)-3-{1-[4-(N-(dimethylaminocarbonylmethyl)-N-benzylsulphonyl-amino)-phenylamino]-1-phenyl-methylidene}-5-nitro-2-indolinone]
231 °C | O=C1Nc2ccc([N+](=O)[O-])cc2/C1=C(/Nc1ccc(CNC2CCCC2)cc1)c1ccccc1 [Example 276, (Z)-3-{1-[4-(cyclopentylaminomethyl)-phenylamino]-1-phenyl-methylidene}-5-nitro-2-indolinone]
220 °C | CN(C)C(=O)CN(c1cccc(N/C(=C2\C(=O)Nc3ccccc32)c2ccc(CN)cc2)c1)S(C)(=O)=O [Example 420, (Z)-3-{1-[3-(N-dimethylaminocarbonylmethyl-N-methylsulphonyl-amino)-phenylamino]-1-(4-aminomethyl-phenyl)-methylidene}-2-indolinone]
> 300 °C | O=C1Nc2ccc([N+](=O)[O-])cc2/C1=C(/Nc1ccc(N2CCOCC2)cc1)c1ccccc1 [Example 80, (Z)-3-[1-(4-morpholinophenylamino)-1-phenyl-methylidene]-5-nitro-2-indolinone]
> 370 °C | Cl.Cl.O=C1Nc2ccc([N+](=O)[O-])cc2/C1=C(/Nc1ccc(CN2CCNCC2)cc1)c1ccccc1

melting point | Structure (SMILES)
227 °C | CC(=O)N(CCCN(C)C)c1ccc(N/C(=C2\C(=O)Nc3ccccc32)c2ccccc2)cc1 [Example 344, (Z)-3-{1-[4-(N-(3-dimethylaminopropyl)-N-acetyl-amino)-phenylamino]-1-phenyl-methylidene}-2-indolinone]
228 to 230 °C | CN(Cc1ccc(N/C(=C2\C(=O)Nc3ccc([N+](=O)[O-])cc32)c2ccccc2)cc1)c1ccccc1 [Example 234, (Z)-3-{1-[4-(N-methyl-N-phenyl-aminomethyl)-phenylamino]-1-phenyl-methylidene}-5-nitro-2-indolinone]
272 to 274 °C | CN(C)CCN(C(=O)c1ccccc1)c1ccc(N/C(=C2\C(=O)Nc3ccccc32)c2ccccc2)cc1 [Example 452, (Z)-3-[1-(4-(N-(2-dimethylaminoethyl)-N-benzoyl-amino)-phenylamino)-1-phenyl-methylidene]-2-indolinone]
258 to 263 °C | NC(=O)c1cccc(N/C(=C2\C(=O)Nc3ccccc32)c2ccccc2)c1 [Example 10, (Z)-3-{1-[3-(aminocarbonyl)phenylamino]-1-phenyl-methylidene}-2-indolinone]
194 °C | CC(=O)NCc1ccc(/C(Nc2cccc(N(CC(=O)N(C)C)S(C)(=O)=O)c2)=C2/C(=O)Nc3ccccc32)cc1 [Example 421, (Z)-3-{1-[3-(N-dimethylaminocarbonylmethyl-N-methylsulphonyl-amino)-phenylamino]-1-(4-acetylaminomethyl-phenyl)-methylidene}-2-indolinone]
244 °C | CN(C)CCN(c1ccc(N/C(=C2\C(=O)Nc3ccccc32)c2ccccc2)cc1)S(=O)(=O)Cc1ccccc1 [Example 314, (Z)-3-{1-[4-(N-(2-dimethylaminoethyl)-N-benzylsulphonyl-amino)-phenylamino]-1-phenyl-methylidene}-2-indolinone]
203 °C | CCS(=O)(=O)N(CC(=O)NCCN(C)C)c1ccc(N/C(=C2\C(=O)Nc3ccccc32)c2ccccc2)cc1 [Example 301, (Z)-3-{1-[4-(N-(2-dimethylamino-ethylaminocarbonylmethyl)-N-ethylsulphonyl-amino)-phenylamino]-1-phenyl-methylidene}-2-indolinone]
163 °C | CNC(=O)CN(c1cccc(N/C(=C2\C(=O)Nc3ccccc32)c2ccccc2)c1)S(C)(=O)=O [Example 320, (Z)-3-{1-[3-(N-methylaminocarbonylmethyl-N-methylsulphonyl-amino)-phenylamino]-1-phenyl-methylidene}-2-indolinone]
133 to 135 °C | CN(C)C(=O)CN(c1ccc(N/C(=C2\C(=O)Nc3ccccc32)c2ccccc2)cc1)S(=O)(=O)Cc1ccccc1 [Example 207, (Z)-3-{1-[4-(N-dimethylaminocarbonylmethyl-N-benzylsulphonyl-amino)-phenylamino]-1-phenyl-methylidene}-2-indolinone]
274 to 277 °C | O=C1Nc2ccc([N+](=O)[O-])cc2/C1=C(/Nc1ccc(CNc2ccccc2)cc1)c1ccccc1 [Example 233, (Z)-3-{1-[4-(phenylaminomethyl)-phenylamino]-1-phenyl-methylidene}-5-nitro-2-indolinone]
234 to 236 °C | CN(C)CC(=O)Nc1ccc(N/C(=C2\C(=O)Nc3ccccc32)c2ccccc2)cc1 [Example 41, (Z)-3-[1-(4-dimethylaminomethylcarbonylamino-phenylamino)-1-phenyl-methylidene]-2-indolinone]
268 to 270 °C | O=C(O)Cc1cccc(N/C(=C2\C(=O)Nc3ccccc32)c2ccccc2)c1 [Example 12, (Z)-3-[1-(3-carboxymethyl-phenylamino)-1-phenyl-methylidene]-2-indolinone]
236 to 239 °C | CN(Cc1ccc(N/C(=C2\C(=O)Nc3ccc([N+](=O)[O-])cc32)c2ccccc2)cc1)c1ncccn1 [Example 272, (Z)-3-{1-[4-((N-methyl-N-pyrimidin-2-yl-amino)-methyl)-phenylamino]-1-phenyl-methylidene}-5-nitro-2-indolinone]
242 °C | CNC(=O)CN(c1cccc(N/C(=C2\C(=O)Nc3ccccc32)c2ccc(CNC(C)=O)cc2)c1)S(C)(=O)=O [Example 419, (Z)-3-{1-[3-(N-methylaminocarbonylmethyl-N-methylsulphonyl-amino)-phenylamino]-1-(4-acetylaminomethyl-phenyl)-methylidene}-2-indolinone]
194 to 195 °C | CCOC(=O)c1cccc(N/C(=C2\C(=O)Nc3ccccc32)c2ccccc2)c1 [Example 14, (Z)-3-[1-(3-ethoxycarbonyl-phenylamino)-1-phenyl-methylidene]-2-indolinone]
299 to 301 °C | CS(=O)(=O)Nc1ccc(N/C(=C2\C(=O)Nc3ccccc32)c2ccccc2)cc1 [Example 185, (Z)-3-[1-(4-methylsulphonylamino-phenylamino)-1-phenyl-methylidene]-2-indolinone]

Structure (SMILES) | melting point
CC(=O)NC(c1ccc(N/C(=C2\C(=O)Nc3ccc([N+](=O)[O-])cc32)c2ccccc2)cc1)N(C)C(=O)OC(C)(C)C (stereo not shown) [Example 145, (Z)-3-{1-[4-((N-tert.butoxycarbonyl-N-methyl-amino)-methylcarbonylaminomethyl)-phenylamino]-1-phenyl-methylidene}-5-nitro-2-indolinone] | 225 to 227 °C (dec.)
CC(C)(C)OC(=O)NCc1ccc(N/C(=C2\C(=O)Nc3ccc([N+](=O)[O-])cc32)c2ccc(CN)cc2)cc1 [Example 148, (Z)-3-[1-(4-tert.butoxycarbonylaminomethyl-phenylamino)-1-(4-aminomethyl-phenyl)-methylidene]-5-nitro-2-indolinone] | 220 to 223 °C
